We go through two compounds from patent EP3722296B1, “DIHYDRONAPHTHYRIDINES AND RELATED COMPOUNDS USEFUL AS KINASE INHIBITORS FOR THE TREATMENT OF PROLIFERATIVE DISEASES” (Deciphera Pharmaceuticals, LLC, priority 2012, dated 2013).

Assay [1] has as its system Phospho-KIT (Tyr719). The experiment in a line: GIST48 KIT Western Blot. The class given is cell-based. To be noted: GIST48 cells, 4 hours, serum-free medium; read-out: pKIT suppression by western blot analysi GIST48. In outline:
(§1)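 Phospho-KIT (Tyr719) was immunoblotted on PVDF and imaged in fluorescence mode after ECL Plus, with stripping and reprobing for total KIT. IC50 values were derived from the blot signals.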

Assay [2] addresses T1, Phospho-KIT (Tyr719) (Homo sapiens, UniProt P10721, K642E).
T1 construct: endogenous in cells; host or cells: GIST882
Nature of the assay: GIST882 KIT Western Blot. The class given is cell-based. To be noted: GIST882 cells, 4 hours, serum-free medium; read-out: pKIT suppression by western blot analysi GIST 882. The essentials: as §1
For orientation: A western blot detects proteins with antibodies after separation by electrophoresis.

Assay [3] deals with T2, c-KIT T670I kinase (Homo sapiens, UniProt P10721, T670I).
T2 construct: The construct contains residues T544-V976 of cKit; GST (N); TEV cleavage site (internal); purchased deCODE Biostructures
T2 sequence (P10721 544-976 T670I): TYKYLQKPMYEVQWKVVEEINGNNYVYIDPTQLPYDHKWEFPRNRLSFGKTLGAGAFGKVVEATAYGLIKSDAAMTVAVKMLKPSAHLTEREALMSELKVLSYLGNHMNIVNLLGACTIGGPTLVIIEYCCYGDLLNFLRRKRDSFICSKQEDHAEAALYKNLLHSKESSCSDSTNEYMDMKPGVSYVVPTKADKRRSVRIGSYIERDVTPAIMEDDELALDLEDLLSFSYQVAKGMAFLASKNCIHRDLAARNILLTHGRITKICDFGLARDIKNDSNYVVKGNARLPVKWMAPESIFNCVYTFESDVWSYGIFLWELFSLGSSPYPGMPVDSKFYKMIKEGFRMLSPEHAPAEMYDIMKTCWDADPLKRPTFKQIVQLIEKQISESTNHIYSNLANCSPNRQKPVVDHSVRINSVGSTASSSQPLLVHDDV
The experiment in a line: c-KIT T670I kinase assay. The class given is biochemical. To be noted: enzymatic assay. The essentials: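 Enzyme: GST-fused, N-terminally tagged cKit bearing T670I, with TEV cleavage site. Reaction started by mixing compound dilutions with reaction mix; activity read continuously over 5 h at 30 °C as loss of 340 nm absorbance from NADH consumption.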

In assay [4] the target is T3, c-KIT D816V kinase (Homo sapiens, UniProt P10721, D816V).
T3 construct: residues T544-V976 with N-terminal GST fusion; purchased deCODE Biostructures
T3 sequence (P10721 544-976 D816V): as the sequence (P10721 544-976 T670I) above, with I127T, D273V counted along it
The experiment in a line: c-KIT D816V kinase Assay. The class given is biochemical. To be noted: enzymatic assay, ATP 200 uM. In outline: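 Coupled assay in which NADH oxidation was tracked as decreasing absorbance at 340 nm, continuously for 5 hours at 30 °C after adding serially diluted compound. Enzyme: cKit residues T544-V976 with N-terminal tag, GST fusion and TEV cleavage site.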

Assay [5] deals with Phospho-KIT (Tyr719). The experiment in a line: GIST430 KIT Western Blot. The class given is cell-based. As to conditions: GIST430 cells, 4 hours, serum-free medium; read-out: pKIT suppression by western blot analysi GIST430. The essentials:
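GIST430 cells were compound-treated in serum-free Ham's F10, then lysed. Phospho-KIT (Tyr719) was measured by western blot with fluorescence-mode ECL, and blots were reprobed for total KIT; IC50 derived from concentration response.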

The target in assay [6] is c-KIT kinase (Homo sapiens, UniProt P10721). Nature of the assay: c-KIT kinase Assay. It counts as biochemical. More on the design: cKIT residues T544-V976; GST (N); TEV cleavage site (internal); purchased deCODE Biostructures. As to conditions: enzymatic assay, ATP 200 µM; read-out: KIT (wt) IC50. In outline:
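This continuous spectrophotometric assay tracked c-KIT kinase turnover through NADH consumption at 340 nm, recorded for 2 hours at 30 °C. The enzyme construct from deCODE Biostructures carried an N-terminal tag, a GST-fusion sequence and a TEV cleavage site. Percent inhibition came from reaction rates over 0 to 1 h relative to a no-compound control, and IC50 values were derived with GraphPad Prism.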

Structures are written as SMILES.

T1 sequence (P10721 26-976 K642E): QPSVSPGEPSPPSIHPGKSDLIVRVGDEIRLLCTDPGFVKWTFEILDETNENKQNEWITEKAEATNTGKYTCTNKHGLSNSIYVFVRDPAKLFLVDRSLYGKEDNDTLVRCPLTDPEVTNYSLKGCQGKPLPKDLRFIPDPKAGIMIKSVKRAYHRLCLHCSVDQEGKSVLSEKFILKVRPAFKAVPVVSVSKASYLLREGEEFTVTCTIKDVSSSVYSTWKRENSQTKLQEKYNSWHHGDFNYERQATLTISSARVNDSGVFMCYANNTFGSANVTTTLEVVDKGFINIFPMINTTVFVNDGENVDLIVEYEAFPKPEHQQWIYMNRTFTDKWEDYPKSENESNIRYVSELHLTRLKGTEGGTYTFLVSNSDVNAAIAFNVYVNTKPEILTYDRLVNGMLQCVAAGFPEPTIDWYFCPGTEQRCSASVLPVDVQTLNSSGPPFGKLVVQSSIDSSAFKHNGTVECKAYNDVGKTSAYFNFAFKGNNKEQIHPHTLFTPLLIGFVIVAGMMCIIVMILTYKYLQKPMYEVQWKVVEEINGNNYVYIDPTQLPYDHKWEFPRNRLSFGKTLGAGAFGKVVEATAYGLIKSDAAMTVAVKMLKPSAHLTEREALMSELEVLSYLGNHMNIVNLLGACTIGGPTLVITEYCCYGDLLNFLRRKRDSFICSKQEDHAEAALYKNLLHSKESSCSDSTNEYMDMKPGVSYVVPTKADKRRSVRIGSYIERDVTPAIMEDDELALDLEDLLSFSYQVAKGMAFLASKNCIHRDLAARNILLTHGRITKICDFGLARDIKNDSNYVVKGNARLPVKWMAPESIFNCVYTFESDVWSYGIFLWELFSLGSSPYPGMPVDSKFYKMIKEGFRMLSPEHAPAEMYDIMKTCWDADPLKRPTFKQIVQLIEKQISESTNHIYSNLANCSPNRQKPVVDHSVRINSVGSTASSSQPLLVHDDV
c-KIT kinase, sequence (P10721 544-976): as the sequence (P10721 544-976 T670I) above, with I127T counted along it

On to `CCn1c(=O)c(-c2cc(NC(=O)Nc3ccc(F)c(CN4CCN(C)CC4)c3)c(F)cc2Cl)cc2cnc(NC)cc21` [Example 87, 1-(4-chloro-5-(1-ethyl-7-(methylamino)-2-oxo-1,2-dihydro-1,6-naphthyridin-3-yl)-2-fluorophenyl)-3-(4-fluoro-3-((4-methylpiperazin-1-yl)methyl)phenyl)urea], for which the IC50 in assay [1] is 10 to 100 nM; in assay [2], 100 to 1000 nM; in assay [3], 10 to 100 nM; in assay [4], 100 to 1000 nM; in assay [5], 100 to 1000 nM; in assay [6], below 10 nM.
In the case of `CCn1c(=O)c(-c2cc(NC(=O)Nc3ccccc3)c(F)cc2C)cc2cnc(NC(=O)N(C)C)cc21` [Example 101, 3-(1-ethyl-3-(4-fluoro-2-methyl-5-(3-phenylureido)phenyl)-2-oxo-1,2-dihydro-1,6-naphthyridin-7-yl)-1,1-dimethylurea], the IC50 in assay [1] is above 1000 nM; in assay [2], 100 to 1000 nM; in assay [3], 10 to 100 nM; in assay [4], 10 to 100 nM; in assay [5], 10 to 100 nM; in assay [6], 10 to 100 nM.
